This note sets out measurements from patent publication EP4562004B1, “NOVEL 7-SUBSTITUTED INDOLE SULFONAMIDE DERIVATIVES” (F. Hoffmann-La Roche AG, priority 2022, dated 2024).

The target in this test is human GPR17 short isoform (Homo sapiens, UniProt Q13304). Kind of test: GPR17 cAMP assay (antagonist mode, TR-FRET cAMP detection). As to conditions: CHO-K1 cells stably expressing human GPR17 short isoform; with EC80 concentration of agonist MDL29,951, IBMX 0.5mM, forskolin 15µM; normalized to reference antagonist; read-out: hGPR17 cAMP IC50. The class given is cell-based. The method, then: CHO-K1 cells stably expressing vector containing untagged human GPR17 short isoform (Roche) were cultured at 37°C / 5% CO2 in DMEM (Dulbecco's Modified Eagle Medium):F-12 (1:1) supplemented with 10% foetal bovine serum and 400 µg/ml Geneticin.
Sequence of human GPR17 short isoform (Q13304 29-367): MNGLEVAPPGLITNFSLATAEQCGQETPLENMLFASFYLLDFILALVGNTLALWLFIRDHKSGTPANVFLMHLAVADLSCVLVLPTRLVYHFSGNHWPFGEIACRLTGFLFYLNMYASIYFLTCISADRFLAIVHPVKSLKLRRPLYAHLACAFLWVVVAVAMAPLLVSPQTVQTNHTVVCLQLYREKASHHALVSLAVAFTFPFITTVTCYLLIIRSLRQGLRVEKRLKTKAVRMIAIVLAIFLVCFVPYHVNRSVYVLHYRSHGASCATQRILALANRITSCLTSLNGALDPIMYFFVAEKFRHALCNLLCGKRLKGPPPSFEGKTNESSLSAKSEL
Changes in intracellular cyclic adenosine monophosphate (cAMP) levels were quantified using the Nano-TRF Detection Assay kit (Roche Diagnostics, Cat. No. 05214386001). This assay allows for direct cAMP quantification in a homogeneous solution. cAMP is detected based on time-resolved fluorescence energy transfer (TR-FRET) and competitive binding of ruthenylated cAMP and endogenous cAMP to an anti-cAMP monoclonal antibody labeled with AlexaFluor-700. The Ruthenium complex serves as the FRET donor and transfers energy to AlexaFluor-700. The FRET signal is inversely proportional to the cAMP concentration.
CHO-GPR17S cells were detached with Accutase and resuspended in assay buffer consisting of Hank's Balanced Salt Solution (HBSS), 10mM HEPES (4-(2-hydroxyethyl) piperazine-1-ethanesulfonic acid solution) and 0.1% bovine serum albumin (pH 7.4). The cells were seeded in black 384-well plates (Corning) at a density of 10'000 cells / 20µl assay buffer until the addition of compounds.
Test antagonist compounds were serially diluted in dimethyl sulfoxide (DMSO) and spotted in 384-well plates. The compounds were then diluted in HBSS buffer supplemented with an EC80 concentration of MDL29,951 (3-(2-Carboxy-4,6-dichloroindol-3-yl)propionic acid) (GPR17 agonist) plus 3-Isobutyl-1-methylxanthine (IBMX) (0.5mM final concentration) and added to the cells at room temperature. Forskolin (15µM final concentration) was added 5 minutes after the test compounds and the cells were incubated at room temperature for 30 minutes. The assay was stopped by adding cAMP detection mix (containing detergents for cell lysis) for 90 minutes at room temperature.
Cellular cAMP was measured using a Paradigm reader (Molecular Devices). The raw data was used to calculate the FRET signal based on the assay's P-factor as per cAMP kit instructions. The data was normalized to the maximal activity of a reference antagonist and dose response curves were fitted to the percent activity of the test compounds using a sigmoidal dose response model (Genedata Screener).
Results in the hGPR17 cAMP assay are provided for compounds of formula I in Table 1 Table 1: […]
A general note: Changes in cAMP serve as a functional read-out for many G protein-coupled receptors.
Take `COc1nc(NS(=O)(=O)c2c[nH]c3c(-n4nccn4)c(Br)ccc23)nc(OC)c1OC(F)F` [Example 29, 6-bromo-N-[5-(difluoromethoxy)-4,6-dimethoxy-pyrimidin-2-yl]-7-(triazol-2-yl)-1H-indole-3-sulfonamide]: the IC50 was 22 nM.

For the molecule `COc1nc(NS(=O)(=O)c2c[nH]c3c(-n4nccn4)c(Br)ccc23)nc(OC)c1OCC(F)F` [Example 30, 6-bromo-N-[5-(2,2-difluoroethoxy)-4,6-dimethoxy-pyrimidin-2-yl]-7-(triazol-2-yl)-1H-indole-3-sulfonamide], the IC50 was 23 nM.

Regarding `COc1nc(NS(=O)(=O)c2c[nH]c3c(-n4nccn4)c(Br)ccc23)nc(OC)c1C1CC1C#N` (centres unmarked) [Example 31, 6-bromo-N-[5-(2-cyanocyclopropyl)-4,6-dimethoxy-pyrimidin-2-yl]-7-(triazol-2-yl)-1H-indole-3-sulfonamide], the IC50 came to 30 nM.

Turning to `COc1nc(NS(=O)(=O)c2c[nH]c3c(-n4nccn4)c(F)ccc23)nc(OC)c1CC(F)F` [Example 32, N-[5-(2,2-difluoroethyl)-4,6-dimethoxy-pyrimidin-2-yl]-6-fluoro-7-(triazol-2-yl)-1H-indole-3-sulfonamide], the IC50 was 69 nM.

Regarding `COc1nc(NS(=O)(=O)c2c[nH]c3c(-n4nccn4)c(F)ccc23)nc(OC)c1OCCF` [Example 33, 6-fluoro-N-[5-(2-fluoroethoxy)-4,6-dimethoxy-pyrimidin-2-yl]-7-(triazol-2-yl)-1H-indole-3-sulfonamide], the IC50 stood at 141 nM.

For `COc1nc(NS(=O)(=O)c2c[nH]c3c(-n4nccn4)c(F)ccc23)nc(OC)c1OC(F)F` [Example 34, N-[5-(difluoromethoxy)-4,6-dimethoxy-pyrimidin-2-yl]-6-fluoro-7-(triazol-2-yl)-1H-indole-3-sulfonamide], the IC50 was determined as 226 nM.

For the molecule `COc1nc(NS(=O)(=O)c2c[nH]c3c(-n4nccn4)c(F)ccc23)nc(OC)c1OCC(F)F` [Example 35, N-[5-(2,2-difluoroethoxy)-4,6-dimethoxy-pyrimidin-2-yl]-6-fluoro-7-(triazol-2-yl)-1H-indole-3-sulfonamide], the IC50 came out at 126 nM.

As for `COc1nc(NS(=O)(=O)c2c[nH]c3c(-n4nccn4)c(F)ccc23)nc(OC)c1C1CC1C#N` (centres unmarked) [Example 36, N-[5-(2-cyanocyclopropyl)-4,6-dimethoxy-pyrimidin-2-yl]-6-fluoro-7-(triazol-2-yl)-1H-indole-3-sulfonamide], the IC50 was 82 nM.

Consider `COc1nc(NS(=O)(=O)c2c[nH]c3c(-n4cncn4)c(Cl)ccc23)nc(OC)c1CC(F)F` [Example 37, 6-chloro-N-[5-(2,2-difluoroethyl)-4,6-dimethoxy-pyrimidin-2-yl]-7-(1,2,4-triazol-1-yl)-1H-indole-3-sulfonamide], for which the IC50 is 60 nM.

Regarding `COc1nc(NS(=O)(=O)c2c[nH]c3c(-n4ncc(C)n4)c(Cl)ccc23)nc(OC)c1OCC(F)F` [Example 38, 6-chloro-N-[5-(2,2-difluoroethoxy)-4,6-dimethoxy-pyrimidin-2-yl]-7-(4-methyltriazol-2-yl)-1H-indole-3-sulfonamide], the IC50 was 34 nM.

With `COc1nc(NS(=O)(=O)c2c[nH]c3c(-n4ncc(C)n4)c(Cl)ccc23)nc(OC)c1OCCF` [Example 39, 6-chloro-N-[5-(2-fluoroethoxy)-4,6-dimethoxy-pyrimidin-2-yl]-7-(4-methyltriazol-2-yl)-1H-indole-3-sulfonamide], the IC50 was determined as 55 nM.

For `COc1nc(NS(=O)(=O)c2c[nH]c3c(-n4ccnn4)c(Cl)ccc23)nc(OC)c1CC(F)F` [Example 40, 6-chloro-N-[5-(2,2-difluoroethyl)-4,6-dimethoxy-pyrimidin-2-yl]-7-(triazol-1-yl)-1H-indole-3-sulfonamide], the IC50 turned out to be 40 nM.

Turning to `COc1nc(NS(=O)(=O)c2c[nH]c3c(-n4nccn4)c(C(F)F)ccc23)nc(OC)c1OCCF` [Example 41, 6-(difluoromethyl)-N-[5-(2-fluoroethoxy)-4,6-dimethoxy-pyrimidin-2-yl]-7-(triazol-2-yl)-1H-indole-3-sulfonamide], the IC50 turned out to be 64 nM.

On to `COc1nc(NS(=O)(=O)c2c[nH]c3c(-n4nccn4)c(C(F)F)ccc23)nc(OC)c1CC(F)F` [Example 42, N-[5-(2,2-difluoroethyl)-4,6-dimethoxy-pyrimidin-2-yl]-6-(difluoromethyl)-7-(triazol-2-yl)-1H-indole-3-sulfonamide], for which the IC50 is 50 nM.

As to `COc1nc(NS(=O)(=O)c2c[nH]c3c(-n4cc(C)cn4)c(Cl)ccc23)nc(OC)c1OCC(F)F` [Example 43, 6-chloro-N-[5-(2,2-difluoroethoxy)-4,6-dimethoxy-pyrimidin-2-yl]-7-(4-methylpyrazol-1-yl)-1H-indole-3-sulfonamide], the IC50 was determined as 29 nM.

For `COc1nc(NS(=O)(=O)c2c[nH]c3c(-n4ccc(C)n4)c(Cl)ccc23)nc(OC)c1OCC(F)F` [Example 44, 6-chloro-N-[5-(2,2-difluoroethoxy)-4,6-dimethoxy-pyrimidin-2-yl]-7-(3-methylpyrazol-1-yl)-1H-indole-3-sulfonamide], the IC50 was found to be 23 nM.

Regarding `COc1nc(NS(=O)(=O)c2c[nH]c3c(-n4cc(F)cn4)c(Cl)ccc23)nc(OC)c1OCC(F)F` [Example 45, 6-chloro-N-[5-(2,2-difluoroethoxy)-4,6-dimethoxy-pyrimidin-2-yl]-7-(4-fluoropyrazol-1-yl)-1H-indole-3-sulfonamide], the IC50 is 25 nM.

As for `COc1nc(NS(=O)(=O)c2c[nH]c3c(-n4nccc4C)c(Cl)ccc23)nc(OC)c1OCC(F)F` [Example 46, 6-chloro-N-[5-(2,2-difluoroethoxy)-4,6-dimethoxy-pyrimidin-2-yl]-7-(5-methylpyrazol-1-yl)-1H-indole-3-sulfonamide], the IC50 came out at 45 nM.

`COc1nc(NS(=O)(=O)c2c[nH]c3c(-n4cc(F)cn4)c(Cl)ccc23)nc(OC)c1OCCF` [Example 47, 6-chloro-N-[5-(2-fluoroethoxy)-4,6-dimethoxy-pyrimidin-2-yl]-7-(4-fluoropyrazol-1-yl)-1H-indole-3-sulfonamide]: the concentration for half-maximal inhibition (IC50) worked out at 26 nM.

Consider `COc1nc(NS(=O)(=O)c2c[nH]c3c(-n4cc(F)cn4)c(Cl)ccc23)nc(OC)c1OC(F)F` [Example 48, 6-chloro-N-[5-(difluoromethoxy)-4,6-dimethoxy-pyrimidin-2-yl]-7-(4-fluoropyrazol-1-yl)-1H-indole-3-sulfonamide], for which the IC50 stood at 69 nM.

`COc1nc(NS(=O)(=O)c2c[nH]c3c(-n4cccn4)c(C(F)F)ccc23)nc(OC)c1OC(F)F` [Example 49, N-[5-(difluoromethoxy)-4,6-dimethoxy-pyrimidin-2-yl]-6-(difluoromethyl)-7-pyrazol-1-yl-1H-indole-3-sulfonamide]: the IC50 was 108 nM.

On to `COc1nc(NS(=O)(=O)c2c[nH]c3c(-n4cccn4)c(C(F)F)ccc23)nc(OC)c1OCC(F)F` [Example 50, N-[5-(2,2-difluoroethoxy)-4,6-dimethoxy-pyrimidin-2-yl]-6-(difluoromethyl)-7-pyrazol-1-yl-1H-indole-3-sulfonamide], for which the IC50 was 65 nM.

Take `COc1nc(NS(=O)(=O)c2c[nH]c3c(-n4cccn4)c(C(F)F)ccc23)nc(OC)c1OCCF` [Example 51, 6-(difluoromethyl)-N-[5-(2-fluoroethoxy)-4,6-dimethoxy-pyrimidin-2-yl]-7-pyrazol-1-yl-1H-indole-3-sulfonamide]: the IC50 is 94 nM.

As for `COc1nc(NS(=O)(=O)c2c[nH]c3c(-n4cccn4)c(C(F)F)ccc23)nc(OC)c1CC(F)F` [Example 52, N-[5-(2,2-difluoroethyl)-4,6-dimethoxy-pyrimidin-2-yl]-6-(difluoromethyl)-7-pyrazol-1-yl-1H-indole-3-sulfonamide], the IC50 came out at 68 nM.

For the molecule `COc1nc(NS(=O)(=O)c2c[nH]c3c(-n4ccc(F)n4)c(Cl)ccc23)nc(OC)c1OCC(F)F` [Example 53, 6-chloro-N-[5-(2,2-difluoroethoxy)-4,6-dimethoxy-pyrimidin-2-yl]-7-(3-fluoropyrazol-1-yl)-1H-indole-3-sulfonamide], the IC50 was 25 nM.

For the molecule `COc1nc(NS(=O)(=O)c2c[nH]c3c(-n4ccc(F)n4)c(Cl)ccc23)nc(OC)c1OC(F)F` [Example 54, 6-chloro-N-[5-(difluoromethoxy)-4,6-dimethoxy-pyrimidin-2-yl]-7-(3-fluoropyrazol-1-yl)-1H-indole-3-sulfonamide], the IC50 was found to be 27 nM.

As a reminder, the IC50 is the midpoint of a concentration-inhibition curve.
